{"source": "ChEMBL document CHEMBL1201862", "about": "“PubChem BioAssay data set” (2004)", "assay_in_all_cases": "inhibition of tumour cell growth, NCI panel, 48 h", "key": {"[1]": {"tested_on": "786-0"}, "[2]": {"tested_on": "A498"}, "[3]": {"tested_on": "A549"}, "[4]": {"tested_on": "ACHN"}, "[5]": {"tested_on": "CAKI-1"}, "[6]": {"tested_on": "CCRF-CEM"}, "[7]": {"tested_on": "COLO 205"}, "[8]": {"tested_on": "DLD-1"}, "[9]": {"tested_on": "DMS-273"}, "[10]": {"tested_on": "EKVX"}, "[11]": {"tested_on": "HCC 2998"}, "[12]": {"tested_on": "HCT-116"}, "[13]": {"tested_on": "HCT-15"}, "[14]": {"tested_on": "HL-60"}, "[15]": {"tested_on": "HOP-18"}, "[16]": {"tested_on": "HOP-62"}, "[17]": {"tested_on": "HT-29"}, "[18]": {"tested_on": "IGROV-1"}, "[19]": {"tested_on": "K562"}, "[20]": {"tested_on": "KM-20L2"}, "[21]": {"tested_on": "KM12"}, "[22]": {"tested_on": "LOX IMVI"}, "[23]": {"tested_on": "LXFL 529"}, "[24]": {"tested_on": "M14"}, "[25]": {"tested_on": "M19-MEL"}, "[26]": {"tested_on": "MOLT-4"}, "[27]": {"tested_on": "Malme-3M"}, "[28]": {"tested_on": "NCI-H226"}, "[29]": {"tested_on": "NCI-H23"}, "[30]": {"tested_on": "NCI-H460"}, "[31]": {"tested_on": "NCI-H522"}, "[32]": {"tested_on": "OVCAR-3"}, "[33]": {"tested_on": "OVCAR-4"}, "[34]": {"tested_on": "OVCAR-5"}, "[35]": {"tested_on": "OVCAR-8"}, "[36]": {"tested_on": "RPMI-8226"}, "[37]": {"tested_on": "RXF 393"}, "[38]": {"tested_on": "SF-268"}, "[39]": {"tested_on": "SF-295"}, "[40]": {"tested_on": "SF-539"}, "[41]": {"tested_on": "SK-MEL-28"}, "[42]": {"tested_on": "SK-MEL-2"}, "[43]": {"tested_on": "SK-MEL-5"}, "[44]": {"tested_on": "SK-OV-3"}, "[45]": {"tested_on": "SN12C"}, "[46]": {"tested_on": "SNB-19"}, "[47]": {"tested_on": "SNB-75"}, "[48]": {"tested_on": "SNB-78"}, "[49]": {"tested_on": "SR"}, "[50]": {"tested_on": "SW-620"}, "[51]": {"tested_on": "TK-10"}, "[52]": {"tested_on": "U-251"}, "[53]": {"tested_on": "UACC-257"}, "[54]": {"tested_on": "UACC-62"}, "[55]": {"tested_on": "UO-31"}, "[56]": {"tested_on": "XF498"}}, "note": "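Method: 48-hour compound exposure of cells in 96-well plates, five concentrations, linear interpolation of endpoints. Here, GI50 denotes the concentration required for 50% inhibition of growth.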 Calls of active or inactive are those of the source. Rule as the data show it: active = GI50 up to about 1.1 µM and inactive = higher."}
{"smiles": "COC(=O)C(=O)C(C#N)c1cccc(Cl)c1", "note": "(stereo unspecified)", "values": [{"measurement": "GI50", "setting": "[1]", "result": "> 100 µM (inactive)"}, {"measurement": "GI50", "setting": "[2]", "result": "> 100 µM (inactive)"}, {"measurement": "GI50", "setting": "[3]", "result": "> 100 µM (inactive)"}, {"measurement": "GI50", "setting": "[4]", "result": "> 100 µM (inactive)"}, {"measurement": "GI50", "setting": "[5]", "result": "> 100 µM (inactive)"}, {"measurement": "GI50", "setting": "[6]", "result": "> 100 µM (inactive)"}, {"measurement": "GI50", "setting": "[7]", "result": "> 100 µM (inactive)"}, {"measurement": "GI50", "setting": "[8]", "result": "> 100 µM (inactive)"}, {"measurement": "GI50", "setting": "[9]", "result": "> 100 µM (inactive)"}, {"measurement": "GI50", "setting": "[10]", "result": "> 100 µM (inactive)"}, {"measurement": "GI50", "setting": "[11]", "result": "> 100 µM (inactive)"}, {"measurement": "GI50", "setting": "[12]", "result": "> 100 µM (inactive)"}, {"measurement": "GI50", "setting": "[13]", "result": "> 100", "unit": "µM"}, {"measurement": "GI50", "setting": "[14]", "result": "> 100 µM (inactive)"}, {"measurement": "GI50", "setting": "[15]", "result": "> 100 µM (inactive)"}, {"measurement": "GI50", "setting": "[16]", "result": "> 100 µM (inactive)"}, {"measurement": "GI50", "setting": "[17]", "result": "> 100 µM (inactive)"}, {"measurement": "GI50", "setting": "[18]", "result": "> 100 µM (inactive)"}, {"measurement": "GI50", "setting": "[19]", "result": "> 100 µM (inactive)"}, {"measurement": "GI50", "setting": "[20]", "result": "> 100 µM (inactive)"}, {"measurement": "GI50", "setting": "[21]", "result": "> 100 µM (inactive)"}, {"measurement": "GI50", "setting": "[22]", "result": "> 100 µM (inactive)"}, {"measurement": "GI50", "setting": "[23]", "result": "> 100 µM (inactive)"}, {"measurement": "GI50", "setting": "[24]", "result": "> 100 µM (inactive)"}, {"measurement": "GI50", "setting": "[25]", "result": "> 100 µM (inactive)"}, {"measurement": "GI50", "setting": "[26]", "result": "> 100 µM (inactive)"}, {"measurement": "GI50", "setting": "[27]", "result": "> 100 µM (inactive)"}, {"measurement": "GI50", "setting": "[28]", "result": "> 100 µM (inactive)"}, {"measurement": "GI50", "setting": "[29]", "result": "> 100 µM (inactive)"}, {"measurement": "GI50", "setting": "[30]", "result": "> 100 µM (inactive)"}, {"measurement": "GI50", "setting": "[31]", "result": "> 100 µM (inactive)"}, {"measurement": "GI50", "setting": "[32]", "result": "> 100 µM (inactive)"}, {"measurement": "GI50", "setting": "[33]", "result": "> 100 µM (inactive)"}, {"measurement": "GI50", "setting": "[34]", "result": "> 100 µM (inactive)"}, {"measurement": "GI50", "setting": "[35]", "result": "> 100 µM (inactive)"}, {"measurement": "GI50", "setting": "[36]", "result": "> 100 µM (inactive)"}, {"measurement": "GI50", "setting": "[37]", "result": "> 100 µM (inactive)"}, {"measurement": "GI50", "setting": "[38]", "result": "> 100 µM (inactive)"}, {"measurement": "GI50", "setting": "[39]", "result": "> 100 µM (inactive)"}, {"measurement": "GI50", "setting": "[40]", "result": "> 100 µM (inactive)"}, {"measurement": "GI50", "setting": "[41]", "result": "> 100 µM (inactive)"}, {"measurement": "GI50", "setting": "[42]", "result": "> 100 µM (inactive)"}, {"measurement": "GI50", "setting": "[43]", "result": "> 100 µM (inactive)"}, {"measurement": "GI50", "setting": "[44]", "result": "> 100 µM (inactive)"}, {"measurement": "GI50", "setting": "[45]", "result": "> 100 µM (inactive)"}, {"measurement": "GI50", "setting": "[46]", "result": "> 100 µM (inactive)"}, {"measurement": "GI50", "setting": "[47]", "result": "> 100 µM (inactive)"}, {"measurement": "GI50", "setting": "[48]", "result": "> 100 µM (inactive)"}, {"measurement": "GI50", "setting": "[49]", "result": "> 100 µM (inactive)"}, {"measurement": "GI50", "setting": "[50]", "result": "> 100 µM (inactive)"}, {"measurement": "GI50", "setting": "[51]", "result": "> 100 µM (inactive)"}, {"measurement": "GI50", "setting": "[52]", "result": "> 100 µM (inactive)"}, {"measurement": "GI50", "setting": "[53]", "result": "> 100 µM (inactive)"}, {"measurement": "GI50", "setting": "[54]", "result": "> 100 µM (inactive)"}, {"measurement": "GI50", "setting": "[55]", "result": "> 100 µM (inactive)"}, {"measurement": "GI50", "setting": "[56]", "result": "> 100 µM (inactive)"}]}
